Data as given in PMC8037182, “Solvothermal Synthesis of Multiple Dihydropyrimidinones at a Time as Inhibitors of Eg5” (Molecules, 2021).

Tested on: L929 cell line
Experiment: Cytotoxicity MTS assay, L929 cell line
Type: cell-based
Settings: for OD490 values, Mean / OD490 values, Well 1 / OD490 values, Well 2 / OD490 values, Well 3: L929 cell line; for IC50: MTS assay, 24 h exposure, ordinary fibroblast, not cancer cells
Protocol: The positive compounds (IC50 < 100 μM) obtained from the primary Eg5 motor protein ATPase assay were tested for antiproliferative activity in vitro against Caco-2 cell line, Hela cell line, L929 cell line and T24 cell line by performing MTS assay. Cells were introduced into 96-well plates at a density of 1000 cells per well. After 24 h incubation, the cells were exposed with compounds at final concentrations ranging from 0.5 to 100 µM for 24 h. DMSO was used at a final concentration of 0.025% as blank control, monastrol was used as the positive control. Then 20 µL (CellTiter 96® AQueous One Solution Promega, Madison, WI, USA) reagent was added in each well. After 2 h at 37 °C in a 80% humidified, 5% CO2 atmosphere, the absorbance at 490 nm was recorded using a microplate reader (BIO-RAD iMark^TM). The results were obtained in three independent duplicate experiments. The primary data were shown in Supplementary Materials Tables S4–S7. The IC50 values for these compounds were calculated from a non-linear regression graph plotted between the percentage of cell viability and concentration with SPSS17.0 software.

SMILES: CCOC(=O)c1[nH]c(C2NC(=O)NC(C)=C2C(=O)Nc2ccccc2C)c(C(=O)OC)c1C (stereo not drawn) [D4]
- OD490 values, Mean (0.5μM, first assay): 1.2390
- OD490 values, Well 1 (0.5μM, first assay): 1.2664
- OD490 values, Well 2 (0.5μM, first assay): 1.2769
- OD490 values, Well 3 (0.5μM, first assay): 1.1737
- OD490 values, Mean (0.5μM, second assay): 1.6699
- OD490 values, Well 1 (0.5μM, second assay): 1.5847
- OD490 values, Well 2 (0.5μM, second assay): 1.7925
- OD490 values, Well 3 (0.5μM, second assay): 1.6324
- OD490 values, Mean (0.5μM, third assay): 1.6193
- OD490 values, Well 1 (0.5μM, third assay): 1.5741
- OD490 values, Well 2 (0.5μM, third assay): 1.5987
- OD490 values, Well 3 (0.5μM, third assay): 1.6852
- OD490 values, Mean (1μM, first assay): 1.1804
- OD490 values, Well 1 (1μM, first assay): 1.2290
- OD490 values, Well 2 (1μM, first assay): 1.2817
- OD490 values, Well 3 (1μM, first assay): 1.0306
- OD490 values, Mean (1μM, second assay): 1.6792
- OD490 values, Well 1 (1μM, second assay): 1.5848
- OD490 values, Well 2 (1μM, second assay): 1.6985
- OD490 values, Well 3 (1μM, second assay): 1.7542
- OD490 values, Mean (1μM, third assay): 1.5459
- OD490 values, Well 1 (1μM, third assay): 1.5698
- OD490 values, Well 2 (1μM, third assay): 1.5478
- OD490 values, Well 3 (1μM, third assay): 1.5202
- OD490 values, Mean (10μM, first assay): 1.0446
- OD490 values, Well 1 (10μM, first assay): 1.1408
- OD490 values, Well 2 (10μM, first assay): 0.9532
- OD490 values, Well 3 (10μM, first assay): 1.0397
- OD490 values, Mean (10μM, second assay): 1.6098
- OD490 values, Well 1 (10μM, second assay): 1.5562
- OD490 values, Well 2 (10μM, second assay): 1.5879
- OD490 values, Well 3 (10μM, second assay): 1.6852
- OD490 values, Mean (10μM, third assay): 1.5291
- OD490 values, Well 1 (10μM, third assay): 1.5364
- OD490 values, Well 2 (10μM, third assay): 1.5879
- OD490 values, Well 3 (10μM, third assay): 1.4630
- OD490 values, Mean (25μM, first assay): 0.9627
- OD490 values, Well 1 (25μM, first assay): 0.8216
- OD490 values, Well 2 (25μM, first assay): 0.8395
- OD490 values, Well 3 (25μM, first assay): 1.2269
- OD490 values, Mean (25μM, second assay): 1.4236
- OD490 values, Well 1 (25μM, second assay): 1.4545
- OD490 values, Well 2 (25μM, second assay): 1.4879
- OD490 values, Well 3 (25μM, second assay): 1.3285
- OD490 values, Mean (25μM, third assay): 1.2968
- OD490 values, Well 1 (25μM, third assay): 1.3325
- OD490 values, Well 2 (25μM, third assay): 1.3214
- OD490 values, Well 3 (25μM, third assay): 1.2365
- OD490 values, Mean (50μM, first assay): 0.9261
- OD490 values, Well 1 (50μM, first assay): 0.8106
- OD490 values, Well 2 (50μM, first assay): 0.9635
- OD490 values, Well 3 (50μM, first assay): 1.0043
- OD490 values, Mean (50μM, second assay): 1.2976
- OD490 values, Well 1 (50μM, second assay): 1.3201
- OD490 values, Well 2 (50μM, second assay): 1.2240
- OD490 values, Well 3 (50μM, second assay): 1.3487
- OD490 values, Mean (50μM, third assay): 1.2105
- OD490 values, Well 1 (50μM, third assay): 1.1145
- OD490 values, Well 2 (50μM, third assay): 1.2301
- OD490 values, Well 3 (50μM, third assay): 1.2869
- OD490 values, Mean (100μM, first assay): 0.7075
- OD490 values, Well 1 (100μM, first assay): 0.8384
- OD490 values, Well 2 (100μM, first assay): 0.6461
- OD490 values, Well 3 (100μM, first assay): 0.6379
- OD490 values, Mean (100μM, second assay): 0.8731
- OD490 values, Well 1 (100μM, second assay): 0.9062
- OD490 values, Well 2 (100μM, second assay): 0.8662
- OD490 values, Well 3 (100μM, second assay): 0.8469
- OD490 values, Mean (100μM, third assay): 0.8397
- OD490 values, Well 1 (100μM, third assay): 0.8652
- OD490 values, Well 2 (100μM, third assay): 0.7214
- OD490 values, Well 3 (100μM, third assay): 0.9325
- IC50: 94.5 µM

SMILES: CCOC(=O)c1[nH]c(C2NC(=O)NC(C)=C2C(=O)Nc2ccc(Cl)cc2)c(C(=O)OCC)c1C (stereo not drawn) [D7]
- OD490 values, Mean (0.5μM, first assay): 1.2964
- OD490 values, Well 1 (0.5μM, first assay): 1.2432
- OD490 values, Well 2 (0.5μM, first assay): 1.3324
- OD490 values, Well 3 (0.5μM, first assay): 1.3135
- OD490 values, Mean (0.5μM, second assay): 1.6723
- OD490 values, Well 1 (0.5μM, second assay): 1.6985
- OD490 values, Well 2 (0.5μM, second assay): 1.7484
- OD490 values, Well 3 (0.5μM, second assay): 1.5699
- OD490 values, Mean (0.5μM, third assay): 1.6351
- OD490 values, Well 1 (0.5μM, third assay): 1.6545
- OD490 values, Well 2 (0.5μM, third assay): 1.5521
- OD490 values, Well 3 (0.5μM, third assay): 1.6987
- OD490 values, Mean (1μM, first assay): 1.2921
- OD490 values, Well 1 (1μM, first assay): 1.3838
- OD490 values, Well 2 (1μM, first assay): 1.2582
- OD490 values, Well 3 (1μM, first assay): 1.2343
- OD490 values, Mean (1μM, second assay): 1.6805
- OD490 values, Well 1 (1μM, second assay): 1.6879
- OD490 values, Well 2 (1μM, second assay): 1.6582
- OD490 values, Well 3 (1μM, second assay): 1.6955
- OD490 values, Mean (1μM, third assay): 1.6677
- OD490 values, Well 1 (1μM, third assay): 1.6254
- OD490 values, Well 2 (1μM, third assay): 1.6358
- OD490 values, Well 3 (1μM, third assay): 1.7420
- OD490 values, Mean (10μM, first assay): 1.2890
- OD490 values, Well 1 (10μM, first assay): 1.2982
- OD490 values, Well 2 (10μM, first assay): 1.3257
- OD490 values, Well 3 (10μM, first assay): 1.2432
- OD490 values, Mean (10μM, second assay): 1.6485
- OD490 values, Well 1 (10μM, second assay): 1.6354
- OD490 values, Well 2 (10μM, second assay): 1.6254
- OD490 values, Well 3 (10μM, second assay): 1.6847
- OD490 values, Mean (10μM, third assay): 1.7036
- OD490 values, Well 1 (10μM, third assay): 1.5935
- OD490 values, Well 2 (10μM, third assay): 1.8852
- OD490 values, Well 3 (10μM, third assay): 1.6320
- OD490 values, Mean (25μM, first assay): 1.2098
- OD490 values, Well 1 (25μM, first assay): 1.2509
- OD490 values, Well 2 (25μM, first assay): 1.2839
- OD490 values, Well 3 (25μM, first assay): 1.0945
- OD490 values, Mean (25μM, second assay): 1.5137
- OD490 values, Well 1 (25μM, second assay): 1.4655
- OD490 values, Well 2 (25μM, second assay): 1.5869
- OD490 values, Well 3 (25μM, second assay): 1.4888
- OD490 values, Mean (25μM, third assay): 1.4100
- OD490 values, Well 1 (25μM, third assay): 1.4658
- OD490 values, Well 2 (25μM, third assay): 1.4441
- OD490 values, Well 3 (25μM, third assay): 1.3201
- OD490 values, Mean (50μM, first assay): 1.1393
- OD490 values, Well 1 (50μM, first assay): 1.0255
- OD490 values, Well 2 (50μM, first assay): 1.3097
- OD490 values, Well 3 (50μM, first assay): 1.0826
- OD490 values, Mean (50μM, second assay): 1.3764
- OD490 values, Well 1 (50μM, second assay): 1.3685
- OD490 values, Well 2 (50μM, second assay): 1.3652
- OD490 values, Well 3 (50μM, second assay): 1.3955
- OD490 values, Mean (50μM, third assay): 1.3402
- OD490 values, Well 1 (50μM, third assay): 1.3584
- OD490 values, Well 2 (50μM, third assay): 1.2635
- OD490 values, Well 3 (50μM, third assay): 1.3987
- OD490 values, Mean (100μM, first assay): 0.7147
- OD490 values, Well 1 (100μM, first assay): 0.7427
- OD490 values, Well 2 (100μM, first assay): 0.7798
- OD490 values, Well 3 (100μM, first assay): 0.6215
- OD490 values, Mean (100μM, second assay): 0.8285
- OD490 values, Well 1 (100μM, second assay): 0.8306
- OD490 values, Well 2 (100μM, second assay): 0.7562
- OD490 values, Well 3 (100μM, second assay): 0.8988
- OD490 values, Mean (100μM, third assay): 0.8420
- OD490 values, Well 1 (100μM, third assay): 0.8635
- OD490 values, Well 2 (100μM, third assay): 0.8992
- OD490 values, Well 3 (100μM, third assay): 0.7632
- IC50: 94.7 µM

SMILES: CCOC(=O)c1c(C2NC(=O)NC(C)=C2C(=O)Nc2ccccc2)[nH]c(C(=O)OC)c1C (stereo not drawn) [D10]
- OD490 values, Mean (0.5μM, first assay): 1.1783
- OD490 values, Well 1 (0.5μM, first assay): 1.1608
- OD490 values, Well 2 (0.5μM, first assay): 1.2289
- OD490 values, Well 3 (0.5μM, first assay): 1.1452
- OD490 values, Mean (1μM, first assay): 1.1453
- OD490 values, Well 1 (1μM, first assay): 1.2474
- OD490 values, Well 2 (1μM, first assay): 1.0902
- OD490 values, Well 3 (1μM, first assay): 1.0983
- OD490 values, Mean (10μM, first assay): 1.1621
- OD490 values, Well 1 (10μM, first assay): 1.1874
- OD490 values, Well 2 (10μM, first assay): 1.1922
- OD490 values, Well 3 (10μM, first assay): 1.1066
- OD490 values, Mean (25μM, first assay): 1.1923
- OD490 values, Well 1 (25μM, first assay): 1.1856
- OD490 values, Well 2 (25μM, first assay): 1.2091
- OD490 values, Well 3 (25μM, first assay): 1.1822
- OD490 values, Mean (50μM, first assay): 1.0704
- OD490 values, Well 1 (50μM, first assay): 0.9680
- OD490 values, Well 2 (50μM, first assay): 1.0467
- OD490 values, Well 3 (50μM, first assay): 1.1965
- OD490 values, Mean (100μM, first assay): 0.9201
- OD490 values, Well 1 (100μM, first assay): 0.8725
- OD490 values, Well 2 (100μM, first assay): 0.9125
- OD490 values, Well 3 (100μM, first assay): 0.9752
- IC50: > 150 µM
